Measured values reported in patent US20250018019A1, “TREATMENT OF INTERFERON DRIVEN INFLAMMATION” (The Provost, Fellows, Foundation Scholars and the other …, priority 2023, published 2025).

Columns and labels:
Type in all cases: cell-based, mouse
[1] = system: BMDMs; experiment: ELISA of cytokine release from BMDMs; conditions: BMDMs pre-treated 3 h, LPS 4 h
Method: (§1) All compounds used DMSO as a vehicle except for 4-hydroxy tamoxifen (EtOH), NAC (PBS), and AOAA for tracing experiments (Media). LPS was used at a concentration of 100 ng/ml for indicated timepoints (2, 3, 4, 6, 8, 24, 48 h). FHIN1 (10 or 20 μM), MMF (50 or 100 μM), DMF (25 μM), AOAA (5 mM), oligomycin (10 μM), CCCP (50 μM) NAC (1 mM), and IMT1 (10 μM) pre-treatments were performed for 3 h prior the addition of LPS. Cells were treated with valinomycin (10 nM) 15 mins before LPS stimulation. Anti-CD210 or IgG control (10 μg/ml) antibodies were added to cells 1 h prior to LPS stimulation. Recombinant mouse IL-10 protein (100 ng/ml) was added to cells at the same time as LPS. Cells were treated with IFN-B1 (220 ng/ml) for 3 h. Cells were treated with C-178 (1 μM) 1 h prior to LPS stimulation or transfection with 2′3′-cGAMP (1.5 μg/ml) for 4 hrs to achieve cGAS-STING activation. Cells were treated with ODN 2088 (1 μM) for 1 hr prior to LPS stimulation or transfection with CPG ODN 1826 (1.5 μg/ml) to achieve TLR9 activation. 3 different timepoints of 4-hydroxy tamoxifen (TAM) (600 nM or 2 μM) or EtOH treatment were performed-these are specified in the individual figure legends. For ‘48 h’ treatments EtOH/TAM was added on day 5 of 6 during the BMDM differentiation protocol. On day 6 they were plated with EtOH/TAM (left overnight) and treated the following day. For ‘72 h’ treatments EtOH/TAM was added on day […] of 6 during the BMDM differentiation protocol. On day 6 they were plated with EtOH/TAM (left overnight) and treated the following day. For ‘96 h’ treatments EtOH/TAM was added on day […] of 6 during the BMDM differentiation protocol. On day 6 they were plated with EtOH/TAM and treated 2 days later.
Pre-designed silencer select siRNAs for Cgas (s103166), Tmem173 (s91058), Tlr3 (s100579), Tlr9 (s96268), As/(s99640), Tlr7 (s100720), Ddx58 (s106376), Ifih1 (s89787), Nrf2 (s70522), Atf4 (s62689) and negative control (4390843) were ordered from Thermo Fisher. siRNA sequences are given in Table S2. Cells were transfected with 50 nM siRNA using 5 μl lipofectamine RNAiMAX according to manufacturer's instructions (Thermo Fisher). Cells were transfected in medium without serum and antibiotics which was replaced with complete medium 8 hours later. Cells were subsequently left for at least a further 12 hours prior to treatment.
BMDMs were plated in the presence or absence of ultrapure ethidium bromide (100 ng/ml) and incubated for a further 6 days prior to treatment. Depletion of mtDNA was determined by genomic DNA isolation followed by qPCR using primers specific for areas of mitochondrial DNA (D-loop) and areas of mtDNA that are not inserted into nuclear DNA (Non-NUMT).
DuoSet ELISA kits for IL-1β, TNFα, IL-6, IL-10, and GDF15 were purchased from R&D Systems and were carried out according to the manufacturer's instructions with appropriately diluted cell supernatants added to each plate in duplicate or triplicate. IFN-β was determined using DuoSet ELISA kit from R&D Systems or Abcam (ab252363). Quantikine ELISA kit for IFN-β (R&D Systems) was used for determination of IFN-β concentration in serum samples and from human cells, and these were also carried out according to the manufacturer's instructions. Absorbance at 450 nm was quantified using a FLUOstar Optima plate reader. Corrected absorbance values were calculated by subtracting the background absorbance, and cytokine concentrations were subsequently obtained by extrapolation from a standard curve plotted on GraphPad Prism 9.2.0.

[2] = system: BMDMs; experiment: LC-MS steady-state metabolomics / fumarate levels in BMDMs; conditions: BMDMs, AOAA 5 mM pre-treatment, LPS 4 h
Method: as §1
BMDMs (3 independent mice) were plated at 0.5×10^6 cells/well in 12-well plates in technical triplicate per condition, treated as indicated, snap frozen and stored at −80° C. For metabolomics on cytosolic fraction, BMDMs were plated at 10×10^6 cells/10 cm dish and rapid fractionation was performed as previously reported^16. Metabolite extraction solution (MES) (methanol/acetonitrile/water, 50:30:20 v/v/v) was added (0.5 mL per 1×10^6 cells) and samples were incubated for 15 min on dry ice. The resulting suspension was transferred to ice-cold microcentrifuge tubes. Samples were agitated for 20 min at 4° C. in a thermomixer and then incubated at −20° C. for 1 h. Samples were centrifuged at maximum speed for 10 min at 4° C. The supernatant was transferred into a new tube and centrifuged again at maximum speed for 10 min at 4° C. The supernatant was transferred to autosampler vials and stored at −80° C. prior to analysis by LC-MS.
HILIC chromatographic separation of metabolites was achieved using a Millipore Sequant ZIC-PHILIC analytical column (5 μm, 2.1×150 mm) equipped with a 2.1×20 mm guard column (both […] particle size) with a binary solvent system. Solvent A was 20 mM ammonium carbonate, 0.05% ammonium hydroxide; Solvent B was acetonitrile. The column oven and autosampler tray were held at 40° C. and 4° C., respectively. The chromatographic gradient was run at a flow rate of 0.200 mL/min as follows: 0-2 min: 80% B; 2-17 min: linear gradient from 80% B to 20% B; 17-17.1 min: linear gradient from 20% B to 80% B; 17.1-22.5 min: hold at 80% B. Samples were randomized and analysed with LC-MS in a blinded manner and the injection volume was 5 μl. Pooled samples were generated from an equal mixture of all individual samples and analysed interspersed at regular intervals within sample sequence as a quality control. Metabolites were measured with a Thermo Scientific Q Exactive Hybrid Quadrupole-Orbitrap Mass spectrometer (HRMS) coupled to a Dionex Ultimate 3000 UHPLC or with Vanquish Horizon UHPLC coupled to an Orbitrap Exploris 240 mass spectrometer (both Thermo Fisher Scientific) via a heated electrospray ionization source. […]

[3] = system: BMDMs; experiment: Stable isotope-assisted tracing (15N2-glutamine) in BMDMs; conditions: 15N2-glutamine tracing, LPS-treated BMDMs, LPS 4 h
Method: All compounds used DMSO as a vehicle except for 4-hydroxy tamoxifen (EtOH), NAC (PBS), and AOAA for tracing experiments (Media). LPS was used at a concentration of 100 ng/ml for indicated timepoints (2, 3, 4, 6, 8, 24, 48 h). FHIN1 (10 or 20 μM), MMF (50 or 100 μM), DMF (25 μM), AOAA (5 mM), oligomycin (10 μM), CCCP (50 μM) NAC (1 mM), and IMT1 (10 μM) pre-treatments were performed for 3 h prior the addition of LPS. Cells were treated with valinomycin (10 nM) 15 mins before LPS stimulation. Anti-CD210 or IgG control (10 μg/ml) antibodies were added to cells 1 h prior to LPS stimulation. Recombinant mouse IL-10 protein (100 ng/ml) was added to cells at the same time as LPS. Cells were treated with IFN-B1 (220 ng/ml) for 3 h. Cells were treated with C-178 (1 μM) 1 h prior to LPS stimulation or transfection with 2′3′-cGAMP (1.5 μg/ml) for 4 hrs to achieve cGAS-STING activation. […]
BMDMs (3 independent mice) were plated at 0.5×10^6 cells/well in 12-well plates in technical triplicate per condition, treated as indicated in glutamine-free DMEM supplemented with U-^13C-glutamine or ^15N2-glutamine, respectively. For ^13C- and ^15N-tracing analysis, the theoretical masses of ^13C and ^15N isotopes were calculated and added to a library of predicted isotopes in Tracefinder 5.0. […]

For `NOCC(=O)O` [AOAA, aminooxyacetic acid], the IL-10 release [1] was “modestly increased”, the TNF-α release [1] was “reduced” and the “aspartate, asparagine, argininosuccinate levels following LPS stimulation” value [2] was “reduced”. The “fumarate levels following LPS stimulation” value [2] was “reduced” and the “contribution of glutamine nitrogen to aspartate, asparagine, arginine and citrulline” value [3] was “completely prevented”.
